Measurements published in US10294229B2, “Heteroaryl substituted aminopyridine compounds” (BRISTOL-MYERS SQUIBB COMPANY, priority 2015, dated 2019).

Target: IRAK4 (Homo sapiens (Human), UniProt Q9NWZ3)
Assay: IRAK4 Inhibition Assay
Assay type: biochemical
Conditions: ATP 500 μM; IRAK4 0.6 nM
Method: The assays were performed in U-bottom 384-well plates. The final assay volume was 30 μL prepared from 15 μL additions of enzyme and substrates (fluoresceinated peptide and ATP) and test compounds in assay buffer (20 mM HEPES pH 7.2, 10 mM MgCl2, 0.015% Brij 35 and 4 mM DTT). The reaction was initiated by the combination of IRAK4 with substrates and test compounds. The reaction mixture was incubated at room temperature for 60 min. and terminated by adding 45 μL of 35 mM EDTA to each sample. The reaction mixture was analyzed on the Caliper LABCHIP® 3000 (Caliper, Hopkinton, Mass.) by electrophoretic separation of the fluorescent substrate and phosphorylated product. Inhibition data were calculated by comparison to no enzyme control reactions for 100% inhibition and vehicle-only reactions for 0% inhibition. The final concentrations of reagents in the assays are ATP, 500 μM; FL-IPTSPITTTYFFFKKK peptide 1.5 μM; IRAK4, 0.6 nM; and DMSO, 1.6%.

Chain of IRAK4 (Q9NWZ3 whole entry, species assumed): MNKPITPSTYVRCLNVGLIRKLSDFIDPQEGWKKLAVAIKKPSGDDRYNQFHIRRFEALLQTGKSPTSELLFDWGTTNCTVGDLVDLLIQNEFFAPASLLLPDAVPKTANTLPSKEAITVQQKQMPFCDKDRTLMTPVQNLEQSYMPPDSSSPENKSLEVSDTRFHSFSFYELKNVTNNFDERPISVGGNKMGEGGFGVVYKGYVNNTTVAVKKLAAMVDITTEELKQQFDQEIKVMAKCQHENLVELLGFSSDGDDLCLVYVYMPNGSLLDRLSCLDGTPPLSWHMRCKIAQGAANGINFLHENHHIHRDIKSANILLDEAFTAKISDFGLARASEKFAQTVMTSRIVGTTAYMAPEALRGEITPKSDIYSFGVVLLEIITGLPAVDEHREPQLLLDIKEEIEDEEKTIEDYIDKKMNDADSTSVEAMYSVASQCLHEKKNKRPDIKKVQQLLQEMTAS

Structure (SMILES) | IC50
CC(C)Nc1cc(-n2ncc3cc(Cl)cnc32)ncc1-c1cn(C)nn1 [Example 165, 2-(5-chloro-1H-pyrazolo[3,4-b]pyridin-1-yl)-N-isopropyl-5-(1-methyl-1H-1,2,3-triazol-4-yl)pyridin-4-amine] | 25 nM
CC(F)Cc1cn(-c2cnc(-n3cnc4cnc(N)nc43)cc2NC(C)C)nn1 (single isomer, unassigned) [Example 293, 9-(5-(4-(2-fluoropropyl)-1H-1,2,3-triazol-1-yl)-4-(isopropylamino)pyridin-2-yl)-9H-purin-2-amine] | 28 nM
CC(C)Nc1cc(-n2ncc3cc(C#N)cnc32)ncc1-n1cc(CCCN)cn1 [Example 251, 1-(5-(4-(3-aminopropyl)-1H-pyrazol-1-yl)-4-(isopropylamino)pyridin-2-yl)-1H-pyrazolo[3,4-b]pyridine-5-carbonitrile] | 39 nM
CC(C)Nc1cc(-n2ncc3cc(C#N)cnc32)ncc1-c1cn(-c2cccnc2)nn1 [Example 174, 1-(4-(isopropylamino)-5-(1-(pyridin-3-yl)-1H-1,2,3-triazol-4-yl)pyridin-2-yl)-1H-pyrazolo[3,4-b]pyridine-5-carbonitrile] | 17 nM
CCn1cc(-c2cnc(-n3cnc4cc(C#N)cnc43)cc2NC(C)C)nn1 [Example 38, 3-(5-(1-ethyl-1H-1,2,3-triazol-4-yl)-4-(isopropylamino)pyridin-2-yl)-3H-imidazo[4,5-b]pyridine-6-carbonitrile] | 10 nM
CC(C)Nc1cc(-n2ncc3cc(C#N)cnc32)ncc1-n1ccc(C(F)(F)F)n1 [Example 247, 1-(4-(isopropylamino)-5-(3-(trifluoromethyl)-1H-pyrazol-1-yl)pyridin-2-yl)-1H-pyrazolo[3,4-b]pyridine-5-carbonitrile] | 202 nM
CCCn1cc(-c2cnc(-n3cnc4cc(C#N)cnc43)cc2Nc2cnn(CC(F)F)c2)nn1 [Example 61, 3-(4-((1-(2,2-difluoroethyl)-1H-pyrazol-4-yl)amino)-5-(1-propyl-1H-1,2,3-triazol-4-yl)pyridin-2-yl)-3H-imidazo[4,5-b]pyridine-6-carbonitrile] | 7 nM
CC(F)Cc1cn(-c2cnc(-n3cnc4cc(C#N)cnc43)cc2NC(C)C)nn1 (single isomer, unassigned) [Example 290, 3-(5-(4-(2-fluoropropyl)-1H-1,2,3-triazol-1-yl)-4-(isopropylamino)pyridin-2-yl)-3H-imidazo[4,5-b]pyridine-6-carbonitrile] | 25 nM
CC(C)Nc1cc(-n2ncc3cc(C#N)cnc32)ncc1-n1cc(-c2ccccn2)nn1 [Example 304, 1-(4-(isopropylamino)-5-(4-(pyridin-2-yl)-1H-1,2,3-triazol-1-yl)pyridin-2-yl)-1H-pyrazolo[3,4-b]pyridine-5-carbonitrile] | 115 nM
CC(C)Nc1cc(-n2ncc3cc(C#N)cnc32)ncc1-c1cn(CC(N)=O)cn1 [Example 237, 2-(4-(6-(5-cyano-1H-pyrazolo[3,4-b]pyridin-1-yl)-4-(isopropylamino)pyridin-3-yl)-1H-imidazol-1-yl) acetamide] | 37 nM
CCCc1cn(-c2cnc(-n3ncc4cncnc43)cc2Nc2cnn(CC(F)F)c2)nn1 [Example 271, N-(1-(2,2-difluoroethyl)-1H-pyrazol-4-yl)-5-(4-propyl-1H-1,2,3-triazol-1-yl)-2-(1H-pyrazolo[3,4-d]pyrimidin-1-yl)pyridin-4-amine] | 108 nM
CC(C)Nc1cc(-n2ncc3cc(C#N)cnc32)ncc1-c1cn(C2CN(C(c3ccccc3)c3ccccc3)C2)nn1 [Example 100, 1-(5-(1-(1-benzhydrylazetidin-3-yl)-1H-1,2,3-triazol-4-yl)-4-(isopropylamino)pyridin-2-yl)-1H-pyrazolo[3,4-b]pyridine-5-carbonitrile] | 235 nM
CC(C)Nc1cc(-n2ncc3cc(C#N)cnc32)ncc1-c1cn(Cc2nc3ccccc3[nH]2)nn1 [Example 108, 1-(5-(1-((1H-benzo[d]imidazol-2-yl)methyl)-1H-1,2,3-triazol-4-yl)-4-(isopropylamino)pyridin-2-yl)-1H-pyrazolo[3,4-b]pyridine-5-carbonitrile] | 35 nM
